# Values quoted from earlier work in patent US12551462B2, “Anti-aging composition with rutin, apigenin, epigallocatechin gallate, lipoic acid and the NAD precursor, niacinamide” (NUCHIDO LIMITED, priority 2018, dated 2026).
# System: NAD concentration
# Conditions: Trammell et al. 2016
smiles,measurement,value
"NC(=O)c1ccc[n+]([C@@H]2O[C@H](CO)[C@@H](O)[C@H]2O)c1 [Niagen, nicotinamide riboside]",Enhancement of NAD (as % baseline),270%
